In brackets after ≈: the same amount, converted by molar mass.
Key:
Bacillus subtilis = assay: Tested for in vitro anti bacterial activity against Bacillus subtilis ATCC- 6633; type: functional
Staphylococcus aureus [1] = assay: Tested for in vitro anti bacterial activity against Staphylococcus aureus MB2985 […]; type: functional
[2] = Tested for in vitro antibacterial activity against DNA polymerase III; set-up: species or system Staphylococcus aureus
Enterococcus faecium [3] = assay: Tested for in vitro anti bacterial activity against Enterococcus faecium RLAI (ampicillin and imipenem resistant); type: functional
Streptococcus pneumoniae [4] = assay: Tested for in vitro anti bacterial activity against Streptococcus pneumoniae CL5350 and growth affected but tested at highest level of inhibition; type: functional
Streptococcus pneumoniae [5] = assay: Tested for in vitro anti bacterial activity against Streptococcus pneumoniae CL5350; type: functional
Staphylococcus aureus [6] = assay: In vitro percent inhibition against Pol III of Staphylococcus aureus at a concentration of 500 uM
[7] = Tested for in vitro antibacterial activity against DNA polymerase III of Staphylococcus aureus
Enterococcus faecium [8] = assay: Tested for in vitro anti bacterial activity against Enterococcus faecium RLAI (ampicillin and imipenem resistant), growth unaffected at highest level; type: functional

## Nc1nc(Cl)cc(Nc2ccc(Cl)c(Cl)c2)n1
Bacillus subtilis
  MIC: 7 µg/mL (≈ 24.2 µM)
Staphylococcus aureus [1]
  MIC: 29 µg/mL (≈ 100 µM)
[2]
  IC50: 98 µM
Enterococcus faecium [3]
  MIC: 29 µg/mL (≈ 100 µM)
Streptococcus pneumoniae [4]
  MIC: > 29 µg/mL

## CC(C)(C)c1cccc(Nc2cc(Cl)nc(N)n2)c1
Bacillus subtilis
  MIC: 7 µg/mL (≈ 25.3 µM)
Staphylococcus aureus [1]
  MIC: 7 µg/mL (≈ 25.3 µM)
[2]
  IC50: 89 µM
Enterococcus faecium [3]
  MIC: 14 µg/mL (≈ 50.6 µM)
Streptococcus pneumoniae [5]
  MIC: 14 µg/mL (≈ 50.6 µM)

## Cc1ccc(Nc2cc(Cl)nc(N)n2)cc1Br
Bacillus subtilis
  MIC: 8 µg/mL (≈ 25.5 µM)
[2]
  IC50: 94 µM
Enterococcus faecium [3]
  MIC: 31 µg/mL (≈ 98.9 µM)
Streptococcus pneumoniae [5]
  MIC: 31 µg/mL (≈ 98.9 µM)

## CCc1cc(Nc2cc(Oc3ccc(Cl)cc3)nc(N)n2)ccc1C
Staphylococcus aureus [6]
  inhibition: 13%

## Cc1ccc(Nc2cc(N(C)C)nc(N)n2)cc1C
Staphylococcus aureus [6]
  inhibition: 27%

## Cc1cc(Nc2ccc(C)c(I)c2)nc(N)n1
Staphylococcus aureus [6]
  inhibition: 21%

## CCc1cc(Nc2cc(Oc3ccc(Br)cc3)nc(N)n2)ccc1C
[7]
  IC50: 10 µM
Staphylococcus aureus [6]
  inhibition: 97%

## Cc1ccc(Nc2cc(Cl)nc(N)n2)cc1C
Bacillus subtilis
  MIC: 6 µg/mL (≈ 24.1 µM)
Staphylococcus aureus [1]
  MIC: > 25 µg/mL
[2]
  IC50: 115 µM
Streptococcus pneumoniae [4]
  MIC: > 25 µg/mL
Enterococcus faecium [8]
  MIC: > 25 µg/mL

## CCc1cc(Nc2cc(Oc3ccc(F)cc3)nc(N)n2)ccc1C
Staphylococcus aureus [6]
  inhibition: 33%

## CCc1cc(Nc2cc(Cl)nc(N)n2)ccc1C
Bacillus subtilis
  MIC: 3 µg/mL (≈ 11.4 µM)
Staphylococcus aureus [1]
  MIC: > 26 µg/mL
[2]
  IC50: 53 µM
Enterococcus faecium [3]
  MIC: 13 µg/mL (≈ 49.5 µM)
Streptococcus pneumoniae [5]
  MIC: 26 µg/mL (≈ 99 µM)

## Cc1ccc(Nc2cc(S)nc(N)n2)cc1I
Staphylococcus aureus [6]
  inhibition: 54%

## Nc1nc(Cl)cc(Nc2ccc3c(c2)CCC3)n1
Bacillus subtilis
  MIC: 3 µg/mL (≈ 11.5 µM)
Staphylococcus aureus [1]
  MIC: > 26 µg/mL
[2]
  IC50: 119 µM
Streptococcus pneumoniae [4]
  MIC: > 26 µg/mL
Enterococcus faecium [8]
  MIC: > 26 µg/mL

## Cc1ccc(Nc2cc(Cl)nc(N)n2)cc1Cl
Bacillus subtilis
  MIC: 13 µg/mL (≈ 48.3 µM)
Staphylococcus aureus [1]
  MIC: 27 µg/mL (≈ 100 µM)
[2]
  IC50: 126 µM
Enterococcus faecium [3]
  MIC: 27 µg/mL (≈ 100 µM)
Streptococcus pneumoniae [5]
  MIC: 27 µg/mL (≈ 100 µM)

## CCc1cc(Nc2cc(Oc3cccc(C)c3)nc(N)n2)ccc1C
[7]
  IC50: 54 µM
Staphylococcus aureus [6]
  inhibition: 88%

## Cc1ccc(Nc2cc(Cl)nc(N)n2)cc1I
Bacillus subtilis
  MIC: 5 µg/mL (≈ 13.9 µM)
Staphylococcus aureus [1]
  MIC: > 36 µg/mL
[2]
  IC50: 51 µM
Enterococcus faecium [3]
  MIC: 36 µg/mL (≈ 99.8 µM)
Streptococcus pneumoniae [5]
  MIC: 18 µg/mL (≈ 49.9 µM)

## CSc1cc(Nc2ccc(C)c(I)c2)nc(N)n1
Staphylococcus aureus [6]
  inhibition: 20%

## Cc1ccc(Nc2cc(Sc3ccccc3)nc(N)n2)cc1I
Staphylococcus aureus [6]
  inhibition: 2%
